Results on 44 compounds are retold here after patent US20210024545A1, “SUBSTITUTED DIAZAHETERO-BICYCLIC COMPOUNDS AND THEIR USE” (Bayer Aktiengesellschaft, priority 2016, published 2021).

One experiment deals with human TASK-1 (Homo sapiens, UniProt O14649). Put plainly: Inhibition of recombinant TASK-1 in stably transfected CHO cells, KCl-induced depolarization, voltage-sensitive dye (B-2). The experiment is classed as cell-based. On the set-up: expressed in transfected cells; host or cells: stably transfected CHO cells. As to conditions: depolarization induced by 40 mM potassium chloride, some mean values from multiple determinations. The method, then: (§1) B-2. Inhibition of Recombinant TASK-1 and TASK-3 In Vitro
Sequence of human TASK-1 (O14649 whole entry): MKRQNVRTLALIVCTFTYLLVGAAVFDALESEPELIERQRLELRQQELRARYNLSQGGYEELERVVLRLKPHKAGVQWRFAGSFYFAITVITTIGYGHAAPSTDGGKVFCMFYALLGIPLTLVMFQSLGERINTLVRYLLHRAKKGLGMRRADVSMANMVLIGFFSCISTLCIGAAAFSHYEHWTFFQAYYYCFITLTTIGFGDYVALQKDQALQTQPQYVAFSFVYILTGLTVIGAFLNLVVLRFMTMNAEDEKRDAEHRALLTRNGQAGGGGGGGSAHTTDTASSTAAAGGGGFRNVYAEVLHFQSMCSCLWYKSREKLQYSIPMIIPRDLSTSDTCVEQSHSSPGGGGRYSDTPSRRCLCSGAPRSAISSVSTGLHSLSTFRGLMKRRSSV
(§2) The investigations on the inhibition of the recombinant TASK-1 and TASK-3 channels were conducted using stably transfected CHO cells. The compounds of the invention were tested here with administration of 40 mM of potassium chloride in the presence of a voltage-sensitive dye using the method described in detail in the following references [Whiteaker et al., Validation of FLIPR membrane potential dye for high-throughput screening of potassium channel modulators, J. Biomol. Screen. 6 (5), 305-312 (2001); Molecular Devices FLIPR Application Note: Measuring membrane potential using the FLIPR® membrane potential assay kit on Fluorometric Imaging Plate Reader (FLIPR®) systems, http://www.moleculardevices.com/reagents-supplies/assay-kits/ion-channels/flipr-membrane-potential-assay-kits]. The activity of the test substances was determined as their ability to inhibit a depolarization induced in the recombinant cells by 40 mM potassium chloride. The concentration which can block half of this depolarization is referred to as IC50).
(§3) Table 2 below lists the IC50 values from this assay determined for individual working examples of the invention (some as mean values from multiple independent individual determinations): […]

For a further experiment, the target named is human TASK-3 (Homo sapiens, UniProt Q9NPC2). Put plainly: Inhibition of recombinant TASK-3 in stably transfected CHO cells, KCl-induced depolarization, voltage-sensitive dye (B-2). Format: cell-based. On the set-up: expressed in transfected cells; host or cells: stably transfected CHO cells. The following applies: depolarization induced by 40 mM potassium chloride, some mean values from multiple determinations. The procedure: as §1, §2, §3
Sequence of human TASK-3 (Q9NPC2 whole entry): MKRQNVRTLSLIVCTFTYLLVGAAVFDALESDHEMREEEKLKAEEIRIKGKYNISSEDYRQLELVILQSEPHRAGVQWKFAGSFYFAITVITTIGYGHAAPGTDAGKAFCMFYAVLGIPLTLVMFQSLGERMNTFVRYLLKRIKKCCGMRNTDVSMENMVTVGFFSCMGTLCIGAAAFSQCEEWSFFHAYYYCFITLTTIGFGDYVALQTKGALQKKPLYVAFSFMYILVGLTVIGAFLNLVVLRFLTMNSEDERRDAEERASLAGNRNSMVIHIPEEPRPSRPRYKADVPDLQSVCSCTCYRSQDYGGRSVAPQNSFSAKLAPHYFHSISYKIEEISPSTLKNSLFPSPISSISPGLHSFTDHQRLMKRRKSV

The term IC50 denotes the concentration that gives 50% inhibition. For `O=C(c1cccc(Cl)c1)N1C2COCC1CN(Cc1c(-c3ccc(Cl)cc3)nc3ccccn13)C2` [Example 79], the results for the IC50 at human TASK-1 and on human TASK-3 were 1000 nM and 190 nM, respectively.
The matching figures for `O=C(c1cccc(OC(F)(F)F)n1)N1C2COCC1CN(Cc1c(-c3ccc(Cl)cc3)nc3ccccn13)C2` [Example 80]: 310 nM and 15 nM.
The like results for `COc1ccc(C)c(C(=O)N2C3COCC2CN(Cc2c(-c4ccc(Cl)cc4)nc4ccccn24)C3)n1` [Example 81] were, in that order, 520 nM and 25 nM.
For `O=C(c1ccccc1F)N1CC2CCC(C1)N2Cc1c(-c2ccc(Br)cc2)nc2ccccn12` [Example 82], the IC50 worked out at 230 nM on human TASK-1 and 420 nM at human TASK-3.
`COc1cccc(C(=O)N2CC3CCC(C2)N3Cc2c(-c3ccc(Br)cc3)nc3ccccn23)n1` [Example 83]: the IC50 is 134 nM at human TASK-1 and 14 nM on human TASK-3.
The like results for `COc1cccc(C(=O)N2CC3CCC(C2)N3Cc2c(-c3ccc(Br)cc3)nc3ccccn23)c1` [Example 84] were, in that order, 1100 nM and 400 nM.
In the case of `O=C(C1CCCC1)N1CC2CCC(C1)N2Cc1c(-c2ccc(Br)cc2)nc2ccccn12` [Example 85], the IC50 turned out to be 520 nM at human TASK-1 and 53 nM at human TASK-3.
The like results for `O=C(c1ccccc1F)N1CC2CCC(C1)N2Cc1c(-c2ccc(Cl)cc2)nc2ccccn12` [Example 87] were, in that order, 583 nM and 160 nM.
The like results for `Cc1ccc(F)cc1C(=O)N1CC2CCC(C1)N2Cc1c(-c2ccc(Cl)cc2)nc2ccccn12` [Example 88] were, in that order, 766 nM and 210 nM.
The like results for `COc1ccc(F)cc1C(=O)N1CC2CCC(C1)N2Cc1c(-c2ccc(Cl)cc2)nc2ccccn12` [Example 89] were, in that order, 827 nM and 220 nM.
For `Cc1ccccc1C(=O)N1CC2CCC(C1)N2Cc1c(-c2ccc(Cl)cc2)nc2ccccn12` [Example 90], the figures for the IC50 on human TASK-1 and at human TASK-3 were 958 nM and 79 nM, respectively.
For `COc1ccccc1C(=O)N1CC2CCC(C1)N2Cc1c(-c2ccc(Cl)cc2)nc2ccccn12` [Example 91], the figures for the IC50 on human TASK-1 and at human TASK-3 were 1350 nM and 89 nM, respectively.
Turning to `O=C(C1CCCCC1)N1CC2CCC(C1)N2Cc1c(-c2ccc(Cl)cc2)nc2ccccn12` [Example 93], the IC50 on human TASK-1 turned out to be 2300 nM; on human TASK-3, 510 nM.
Turning to `CC(C)c1ccc(-c2nc3ccccn3c2CN2C3CCC2CN(C(=O)c2ccccc2F)C3)cc1` [Example 94], the figures for the IC50 on human TASK-1 and on human TASK-3 were 530 nM and 130 nM, respectively.
On to `COc1cccc(C(=O)N2CC3CCC(C2)N3Cc2c(-c3ccc(C(C)C)cc3)nc3ccccn23)n1` [Example 95], for which the IC50 at human TASK-1 turned out to be 1700 nM; on human TASK-3, 350 nM.
As to `O=C(C1CCCC1)N1C2CCC1CN(Cc1c(-c3ccc(Br)cc3)nc3ccccn13)C2` [Example 96], the IC50 at human TASK-1 stood at 240 nM; on human TASK-3 it was 4.5 nM.
The like results for `O=C(c1ccccc1F)N1C2CCC1CN(Cc1c(-c3ccc(Br)cc3)nc3ccccn13)C2` [Example 97] were, in that order, 390 nM and 7.8 nM.
Turning to `COc1cccc(C(=O)N2C3CCC2CN(Cc2c(-c4ccc(Br)cc4)nc4ccccn24)C3)n1` [Example 98], the results for the IC50 at human TASK-1 and on human TASK-3 were 450 nM and 14 nM, respectively.
Turning to `COc1cccc(C(=O)N2C3CCC2CN(Cc2c(-c4ccc(Br)cc4)nc4ccccn24)C3)c1` [Example 99], the IC50 on human TASK-1 turned out to be 470 nM; at human TASK-3 it was 16 nM.
The matching figures for `Cc1ccccc1C(=O)N1C2CCC1CN(Cc1c(-c3ccc(Cl)cc3)nc3ccccn13)C2` [Example 100]: 250 nM and 17 nM.
Take `O=C(C1CCC1)N1C2CCC1CN(Cc1c(-c3ccc(Cl)cc3)nc3ccccn13)C2` [Example 101]: the IC50 stood at 370 nM on human TASK-1 and 7.2 nM at human TASK-3.
In the case of `COc1ccc(F)cc1C(=O)N1C2CCC1CN(Cc1c(-c3ccc(Cl)cc3)nc3ccccn13)C2` [Example 103], the IC50 at human TASK-1 was determined as 540 nM; at human TASK-3, 20 nM.
`O=C(C1CCCCC1)N1C2CCC1CN(Cc1c(-c3ccc(Cl)cc3)nc3ccccn13)C2` [Example 105]: the IC50 at human TASK-1 amounted to 830 nM; on human TASK-3, 20 nM.
The like results for `O=C(c1cc(F)ccc1Cl)N1C2CCC1CN(Cc1c(-c3ccc(Cl)cc3)nc3ccccn13)C2` [Example 106] were, in that order, 870 nM and 110 nM.
The matching figures for `Cc1ccc(F)cc1C(=O)N1C2CCC1CN(Cc1c(-c3ccc(Cl)cc3)nc3ccccn13)C2` [Example 107]: 1000 nM and 33 nM.
With `COc1cccc(C(=O)N2C3CCC2CN(Cc2c(-c4ccc(Cl)cc4)nc4ccccn24)C3)c1` [Example 108], the IC50 was found to be 1100 nM at human TASK-1 and 95 nM at human TASK-3.
On to `COc1ccccc1C(=O)N1C2CCC1CN(Cc1c(-c3ccc(Cl)cc3)nc3ccccn13)C2` [Example 109], for which the IC50 was found to be 693 nM at human TASK-1 and 92 nM on human TASK-3.
Consider `CC(C)c1ccc(-c2nc3ccccn3c2CN2CC3CCC(C2)N3C(=O)c2ccccc2F)cc1` [Example 110], for which the values for the IC50 at human TASK-1 and on human TASK-3 were 780 nM and 300 nM, respectively.
As for `O=C(c1ccccc1F)N1C2CCC1CN(Cc1c(-c3ccc(Cl)cn3)nc3ccccn13)C2` [Example 111], the concentration for half-maximal inhibition (IC50) at human TASK-1 was found to be 110 nM; on human TASK-3, 25 nM.
On to `COc1cccc(C(=O)N2C3CCC2CN(Cc2c(-c4ccc(Cl)cn4)nc4ccccn24)C3)c1` [Example 112], for which the figures for the IC50 on human TASK-1 and on human TASK-3 were 200 nM and 29 nM, respectively.
The matching figures for `O=C(C1CCCC1)N1C2CCC1CN(Cc1c(-c3ccc(Cl)cn3)nc3ccccn13)C2` [Example 113]: 89 nM and 21 nM.
Turning to `O=C(c1cccc(Cl)c1)N1C2CC1CN(Cc1c(-c3ccc(Cl)cc3)nc3ccccn13)C2` [Example 114], the IC50 at human TASK-1 is 480 nM; at human TASK-3 it was 340 nM.
The like results for `O=C(C1CCCC1)N1C2CC1CN(Cc1c(-c3ccc(Cl)cc3)nc3ccccn13)C2` [Example 116] were, in that order, 535 nM and 340 nM.
As to `O=C(c1ccccc1F)N1C2CC1CN(Cc1c(-c3ccc(Cl)cc3)nc3ccccn13)C2` [Example 117], the IC50 on human TASK-1 was found to be 635 nM; at human TASK-3, 520 nM.
The matching figures for `O=C(C1CCCCC1)N1C2CC1CN(Cc1c(-c3ccc(Cl)cc3)nc3ccccn13)C2` [Example 118]: 860 nM and 1000 nM.
With `O=C(c1cc(F)ccc1Cl)N1C2CC1CN(Cc1c(-c3ccc(Cl)cc3)nc3ccccn13)C2` [Example 119], the IC50 at human TASK-1 amounted to 1100 nM; on human TASK-3 it was 1500 nM.
As for `O=C(c1cccc(OC(F)(F)F)c1)N1C2CC1CN(Cc1c(-c3ccc(Cl)cc3)nc3ccccn13)C2` [Example 120], the IC50 on human TASK-1 was 1100 nM; at human TASK-3 it was 180 nM.
The like results for `O=C(C1CCC1)N1C2CC1CN(Cc1c(-c3ccc(Cl)cc3)nc3ccccn13)C2` [Example 121] were, in that order, 1700 nM and 2800 nM.
On to `CCOc1cccc(C(=O)N2C3CC2CN(Cc2c(-c4ccc(Cl)cc4)nc4ccccn24)C3)c1` [Example 122], for which the IC50 on human TASK-1 was found to be 1100 nM; at human TASK-3 it was 120 nM.
The matching figures for `CC(C)c1ccc(-c2nc3ccccn3c2CN2CC3CC(C2)N3C(=O)C2CCCC2)cc1` [Example 123]: 2000 nM and 1600 nM.
`O=C(c1cccc(OC(F)(F)F)n1)N1C2COCC1CN(Cc1c(-c3ccc(Cl)cn3)nc3ccccn13)C2` [Example 135, (7-{[2-(5-Chloropyridin-2-yl)imidazo[1,2-a]pyridin-3-yl]methyl}-3-oxa-7,9-diazabicyclo[3.3.1]non-9-yl)[6-(trifluoromethoxy)pyridin-2-yl]methanone]: the half-maximal inhibitory concentration (IC50) was determined as 4100 nM on human TASK-1 and 160 nM at human TASK-3.
With `COc1ccc(Cl)c(C(=O)N2C3COCC2CN(Cc2c(-c4ccc(Cl)cn4)nc4ccccn24)C3)n1` [Example 136, (3-Chloro-6-methoxypyridin-2-yl)(7-{[2-(5-chloropyridin-2-yl)imidazo[1,2-a]pyridin-3-yl]methyl}-3-oxa-7,9-diazabicyclo[3.3.1]non-9-yl)methanone], the IC50 was determined as 9300 nM on human TASK-1 and 44 nM at human TASK-3.
The matching figures for `COc1ccc(Cl)c(C(=O)N2C3CCC2CN(Cc2c(-c4ccc(Br)cc4)nc4ccccn24)C3)n1` [Example 139, (3-{[2-(4-Bromophenyl)imidazo[1,2-a]pyridin-3-yl]methyl}-3,8-diazabicyclo[3.2.1]oct-8-yl)(3-chloro-6-methoxypyridin-2-yl)methanone]: 290 nM and 18 nM.
The matching figures for `COc1ccc(F)c(C(=O)N2C3CCC2CN(Cc2c(-c4ccc(Br)cc4)nc4ccccn24)C3)n1` [Example 140, (3-{[2-(4-Bromophenyl)imidazo[1,2-a]pyridin-3-yl]methyl}-3,8-diazabicyclo[3.2.1]oct-8-yl)(3-fluoro-6-methoxypyridin-2-yl)methanone]: 160 nM and 21 nM.
